# Assay results as given in patent US8313729B2, “Integrated photoactive small molecules and uses thereof” (Medibeacon, LLC, priority 2007, dated 2012).
# Columns and labels:
# [1] = Fluorescence excitation and emission; format: physicochemical
# [2] = UV/vis absorption in PBS; format: physicochemical; conditions: 100 μM in PBS
Compound,Fluorescence λem ([1]; 100 nM) [nm],Fluorescence λex ([1]; 100 nM) [nm],UV/vis λabs [2] [nm],Fluorescence λem ([1]; concentration not given) [nm],Fluorescence λex ([1]; concentration not given) [nm]
"N=C(N)c1ccc(CNC(=O)c2nc(N)c(C(=O)NCc3ccc(C(=N)N)cc3)nc2N)cc1 [Example 1, 3,6-diamino-N2,N5-bis(4-carbamimidoylbenzyl)pyrazine-2,5-dicarboxamide]",554,428,437,–,–
"Nc1nc(C(=O)NCC(O)CO)c(N)nc1C(=O)NCC(O)CO (stereo not drawn) [Example 3, 3,6-diamino-N^2,N^5-bis(2,3-dihydroxypropyl)pyrazine-2,5-dicarboxamide]",–,–,434,559,449
"Nc1nc(C(=O)N[C@@H](CO)C(=O)O)c(N)nc1C(=O)N[C@@H](CO)C(=O)O [Example 4, 3,6-Diamino-N^2,N^5-bis(serine)-pyrazine-2,5-dicarboxamide]",–,–,432,558,432
